Measurements: PubChem BioAssay (NCI)
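Each compound was tested at five concentrations against cells in 96-well plates for 48 hours. Here, GI50 denotes the concentration required for 50% inhibition of growth. TGI is the concentration that stops growth completely.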

Key:
Experiment in all cases: DTP human tumour cell line panel, 48 h
SF-295 CNS = tested on: SF-295 CNS
LOX IMVI melanoma = tested on: LOX IMVI melanoma
SK-MEL-5 melanoma = tested on: SK-MEL-5 melanoma
OVCAR-5 ovarian = tested on: OVCAR-5 ovarian
UACC-257 melanoma = tested on: UACC-257 melanoma
DMS 273 small cell lung = tested on: DMS 273 small cell lung
U251 CNS = tested on: U251 CNS
NCI-H460 lung = tested on: NCI-H460 lung
SNB-78 CNS = tested on: SNB-78 CNS
SNB-75 CNS = tested on: SNB-75 CNS
KM20L2 colon = tested on: KM20L2 colon
MOLT-4 leukemia = tested on: MOLT-4 leukemia
OVCAR-3 ovarian = tested on: OVCAR-3 ovarian
SN12C renal = tested on: SN12C renal
UACC-62 melanoma = tested on: UACC-62 melanoma
SF-268 CNS = tested on: SF-268 CNS
K-562 leukemia = tested on: K-562 leukemia
HCC-2998 colon = tested on: HCC-2998 colon
SF-539 CNS = tested on: SF-539 CNS
HOP-62 NSCLC = tested on: HOP-62 NSCLC
LXFL 529 NSCLC = tested on: LXFL 529 NSCLC
SK-MEL-2 melanoma = tested on: SK-MEL-2 melanoma
786-0 renal = tested on: 786-0 renal
HCT-116 colon = tested on: HCT-116 colon
HCT-15 colon = tested on: HCT-15 colon
M14 melanoma = tested on: M14 melanoma
SK-OV-3 ovarian = tested on: SK-OV-3 ovarian
COLO 205 colon = tested on: COLO 205 colon
HOP-92 NSCLC = tested on: HOP-92 NSCLC
SK-MEL-28 melanoma = tested on: SK-MEL-28 melanoma
HT29 colon = tested on: HT29 colon
TK-10 renal = tested on: TK-10 renal
CCRF-CEM leukemia = tested on: CCRF-CEM leukemia
NCI-H23 lung = tested on: NCI-H23 lung
SNB-19 CNS = tested on: SNB-19 CNS
DLD-1 colon = tested on: DLD-1 colon
SW-620 colon = tested on: SW-620 colon
UO-31 renal = tested on: UO-31 renal
ACHN renal = tested on: ACHN renal
MALME-3M melanoma = tested on: MALME-3M melanoma
NCI-H522 lung = tested on: NCI-H522 lung
A549 NSCLC = tested on: A549 NSCLC
IGROV1 ovarian = tested on: IGROV1 ovarian
RPMI-8226 leukemia = tested on: RPMI-8226 leukemia
EKVX NSCLC = tested on: EKVX NSCLC
OVCAR-4 ovarian = tested on: OVCAR-4 ovarian
KM12 colon = tested on: KM12 colon
A498 renal = tested on: A498 renal
OVCAR-8 ovarian = tested on: OVCAR-8 ovarian

CCCCC(=O)[O-].N.N.N.N.N.[Co+3].[O-][Cl+3]([O-])([O-])[O-]
GI50 (SF-295 CNS): > 100 µM
TGI (SF-295 CNS): > 100 µM
GI50 (LOX IMVI melanoma): > 100 µM
TGI (LOX IMVI melanoma): > 100 µM
GI50 (SK-MEL-5 melanoma): > 100 µM
TGI (SK-MEL-5 melanoma): > 100 µM
GI50 (OVCAR-5 ovarian): > 100 µM
TGI (OVCAR-5 ovarian): > 100 µM
GI50 (UACC-257 melanoma): > 100 µM
TGI (UACC-257 melanoma): > 100 µM
GI50 (DMS 273 small cell lung): > 100 µM
TGI (DMS 273 small cell lung): > 100 µM
GI50 (U251 CNS): > 100 µM
TGI (U251 CNS): > 100 µM
GI50 (NCI-H460 lung): > 100 µM
TGI (NCI-H460 lung): > 100 µM
GI50 (SNB-78 CNS): > 100 µM
TGI (SNB-78 CNS): > 100 µM
GI50 (SNB-75 CNS): 49.3 µM
TGI (SNB-75 CNS): > 100 µM
GI50 (KM20L2 colon): > 100 µM
TGI (KM20L2 colon): > 100 µM
GI50 (MOLT-4 leukemia): > 100 µM
TGI (MOLT-4 leukemia): > 100 µM
GI50 (OVCAR-3 ovarian): > 100 µM
TGI (OVCAR-3 ovarian): > 100 µM
GI50 (SN12C renal): > 100 µM
TGI (SN12C renal): > 100 µM
GI50 (UACC-62 melanoma): > 100 µM
TGI (UACC-62 melanoma): > 100 µM
GI50 (SF-268 CNS): > 100 µM
TGI (SF-268 CNS): > 100 µM
GI50 (K-562 leukemia): > 100 µM
TGI (K-562 leukemia): > 100 µM
GI50 (HCC-2998 colon): > 100 µM
TGI (HCC-2998 colon): > 100 µM
GI50 (SF-539 CNS): > 100 µM
TGI (SF-539 CNS): > 100 µM
GI50 (HOP-62 NSCLC): > 100 µM
TGI (HOP-62 NSCLC): > 100 µM
GI50 (LXFL 529 NSCLC): > 100 µM
TGI (LXFL 529 NSCLC): > 100 µM
GI50 (SK-MEL-2 melanoma): > 100 µM
TGI (SK-MEL-2 melanoma): > 100 µM
GI50 (786-0 renal): > 100 µM
TGI (786-0 renal): > 100 µM
GI50 (HCT-116 colon): > 100 µM
TGI (HCT-116 colon): > 100 µM
GI50 (HCT-15 colon): > 100 µM
TGI (HCT-15 colon): > 100 µM
GI50 (M14 melanoma): > 100 µM
TGI (M14 melanoma): > 100 µM
GI50 (SK-OV-3 ovarian): > 100 µM
TGI (SK-OV-3 ovarian): > 100 µM
GI50 (COLO 205 colon): > 100 µM
TGI (COLO 205 colon): > 100 µM
GI50 (HOP-92 NSCLC): > 100 µM
TGI (HOP-92 NSCLC): > 100 µM
GI50 (SK-MEL-28 melanoma): > 100 µM
TGI (SK-MEL-28 melanoma): > 100 µM
GI50 (HT29 colon): > 100 µM
TGI (HT29 colon): > 100 µM
GI50 (TK-10 renal): > 100 µM
TGI (TK-10 renal): > 100 µM
GI50 (CCRF-CEM leukemia): > 100 µM
TGI (CCRF-CEM leukemia): > 100 µM
GI50 (NCI-H23 lung): > 100 µM
TGI (NCI-H23 lung): > 100 µM
GI50 (SNB-19 CNS): > 100 µM
TGI (SNB-19 CNS): > 100 µM
GI50 (DLD-1 colon): > 100 µM
TGI (DLD-1 colon): > 100 µM
GI50 (SW-620 colon): > 100 µM
TGI (SW-620 colon): > 100 µM
GI50 (UO-31 renal): > 100 µM
TGI (UO-31 renal): > 100 µM
GI50 (ACHN renal): > 100 µM
TGI (ACHN renal): > 100 µM
GI50 (MALME-3M melanoma): > 100 µM
TGI (MALME-3M melanoma): > 100 µM
GI50 (NCI-H522 lung): > 100 µM
TGI (NCI-H522 lung): > 100 µM
GI50 (A549 NSCLC): > 100 µM
TGI (A549 NSCLC): > 100 µM
GI50 (IGROV1 ovarian): > 100 µM
TGI (IGROV1 ovarian): > 100 µM
GI50 (RPMI-8226 leukemia): > 100 µM
TGI (RPMI-8226 leukemia): > 100 µM
GI50 (EKVX NSCLC): > 100 µM
TGI (EKVX NSCLC): > 100 µM
GI50 (OVCAR-4 ovarian): > 100 µM
TGI (OVCAR-4 ovarian): > 100 µM
GI50 (KM12 colon): > 100 µM
TGI (KM12 colon): > 100 µM
GI50 (A498 renal): > 100 µM
TGI (A498 renal): > 100 µM
GI50 (OVCAR-8 ovarian): > 100 µM
TGI (OVCAR-8 ovarian): > 100 µM
